This is an account of results in PubChem BioAssay AID256 (DTP/NCI, 2004).

Inconclusive results and toxic doses are left out.

In the experiment the test system is CD2F1 mice, L1210 leukemia ip, survival T/C. The experiment in a line: NCI In Vivo Anticancer Drug Screen. Data for tumor model L1210 Leukemia (intraperitoneal) in CD2F1 (CDF1) mice. Particulars: endpoint: mean survival time, higher = longer survival. The gist of the method:
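Vehicle-treated tumor-bearing mice served as controls (C) for compound-treated mice (T). Reported figure is T divided by C.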

[1] abbreviates: dose: 50.0 mg/kg/injection, schedule: Q01DX009 (ip), vehicle: saline with Tween-80.
[2] abbreviates: dose: 100.0 mg/kg/injection, schedule: Q01DX009 (ip), vehicle: saline with Tween-80.

Turning to `CCOC(=O)CC(Cc1cc(OC)ccc1OC)(C(C)=O)C(C)=O`, the T/C (dose: 12.5 mg/kg/injection, schedule: Q01DX009 (ip), vehicle: water) was 100 % of control; the T/C (dose: 25.0 mg/kg/injection, schedule: Q01DX009 (ip), vehicle: water) is 110 % of control; the T/C (dose: 50.0 mg/kg/injection, schedule: Q01DX009 (ip), vehicle: water) was 102 % of control; the T/C (dose: 100.0 mg/kg/injection, schedule: Q01DX009 (ip), vehicle: water) is 95 % of control; the T/C (dose: 200.0 mg/kg/injection, schedule: Q01DX009 (ip), vehicle: water) is 114 % of control.
Consider `N=C(N)SCc1c2ccccc2c(CSC(=N)N)c2ccccc12`, for which the T/C is 109 % of control (dose: 0.06 mg/kg/injection, schedule: Q#B X Z (ip), vehicle: saline); 121 % of control (dose: 0.13 mg/kg/injection, schedule: Q#B X Z (ip), vehicle: saline); 115 % of control (dose: 0.39 mg/kg/injection, schedule: Q01DX Z (ip), vehicle: saline); 121 % of control (dose: 0.78 mg/kg/injection, schedule: Q01DX Z (ip), vehicle: saline); 155 % of control (dose: 1.04 mg/kg/injection, schedule: Q#B X Z (ip), vehicle: saline); 160 % of control (dose: 2.08 mg/kg/injection, schedule: Q#B X Z (ip), vehicle: saline). Besides, the T/C is, setting by setting: (dose: 3.13 mg/kg/injection, schedule: Q01DX Z (ip), vehicle: saline) 151 % of control; (dose: 6.25 mg/kg/injection, schedule: Q01DX Z (ip), vehicle: saline) 162 % of control; (dose: 8.33 mg/kg/injection, schedule: Q#B X Z (ip), vehicle: saline) 119 % of control; (dose: 12.5 mg/kg/injection, schedule: Q01DX Z (ip), vehicle: saline) 156 % of control; (dose: 16.66 mg/kg/injection, schedule: Q#B X Z (ip), vehicle: saline) 98 % of control; (dose: 25.0 mg/kg/injection, schedule: Q01DX Z (ip), vehicle: saline) 155 % of control. Further, the T/C by setting is: (dose: 50.0 mg/kg/injection, schedule: Q01DX001 (ip), vehicle: saline) 158 % of control; (dose: 50.0 mg/kg/injection, schedule: Q03HX008 (ip), vehicle: saline) 178 % of control; (dose: 50.0 mg/kg/injection, schedule: Q03HX016 (ip), vehicle: saline) 175 % of control; (dose: 50.0 mg/kg/injection, schedule: Q06HX004 (ip), vehicle: saline) 151 % of control; (dose: 50.0 mg/kg/injection, schedule: Q08DX002 (ip), vehicle: saline) 174 % of control; (dose: 50.0 mg/kg/injection, schedule: Q12HX002 (ip), vehicle: saline) 173 % of control. The T/C reads like this: (dose: 50.0 mg/kg/injection, schedule: Q12HX004 (ip), vehicle: saline) 189 % of control; (dose: 80.0 mg/kg/injection, schedule: Q01DX001 (ip), vehicle: saline) 168 % of control; (dose: 100.0 mg/kg/injection, schedule: Q01DX001 (ip), vehicle: saline) 193 % of control; (dose: 100.0 mg/kg/injection, schedule: Q01DX009 (ip), vehicle: saline) 154 % of control; (dose: 100.0 mg/kg/injection, schedule: Q01DX Z (ip), vehicle: saline) 124 % of control; (dose: 100.0 mg/kg/injection, schedule: Q03HX008 (ip), vehicle: saline) 196 % of control. Besides, the T/C (dose: 100.0 mg/kg/injection, schedule: Q03HX016 (ip), vehicle: saline) was 194 % of control; the T/C (dose: 100.0 mg/kg/injection, schedule: Q08DX002 (ip), vehicle: saline) is 220 % of control; the T/C (dose: 100.0 mg/kg/injection, schedule: Q12HX002 (ip), vehicle: saline) was 239 % of control; the T/C (dose: 100.0 mg/kg/injection, schedule: Q12HX004 (ip), vehicle: saline) was 224 % of control; the T/C (dose: 125.0 mg/kg/injection, schedule: Q01DX001 (ip), vehicle: saline) is 113 % of control; the T/C (dose: 200.0 mg/kg/injection, schedule: Q01DX001 (ip), vehicle: saline) is 227 % of control. For the same molecule, the T/C is, setting by setting: (dose: 200.0 mg/kg/injection, schedule: Q01DX009 (ip), vehicle: saline) 106 % of control; (dose: 200.0 mg/kg/injection, schedule: Q01DX010 (oral), vehicle: saline) 94 % of control; (dose: 200.0 mg/kg/injection, schedule: Q01DX Z (ip), vehicle: saline) 88 % of control; (dose: 200.0 mg/kg/injection, schedule: Q03HX008 (ip), vehicle: saline) 207 % of control; (dose: 200.0 mg/kg/injection, schedule: Q03HX016 (ip), vehicle: saline) 204 % of control; (dose: 200.0 mg/kg/injection, schedule: Q06HX008 (ip), vehicle: saline) 179 % of control. Also, the T/C is, setting by setting: (dose: 200.0 mg/kg/injection, schedule: Q08DX002 (ip), vehicle: saline) 197 % of control; (dose: 200.0 mg/kg/injection, schedule: Q12HX002 (ip), vehicle: saline) 254 % of control; (dose: 200.0 mg/kg/injection, schedule: Q12HX004 (ip), vehicle: saline) 158 % of control; (dose: 320.0 mg/kg/injection, schedule: Q01DX001 (ip), vehicle: saline) 100 % of control; (dose: 400.0 mg/kg/injection, schedule: Q01DX010 (oral), vehicle: saline) 90 % of control; (dose: 400.0 mg/kg/injection, schedule: Q03HX016 (ip), vehicle: saline) 111 % of control. Moreover, the T/C is 183 % of control (dose: 400.0 mg/kg/injection, schedule: Q06HX004 (ip), vehicle: saline); 152 % of control (dose: 400.0 mg/kg/injection, schedule: Q06HX008 (ip), vehicle: saline); 152 % of control (dose: 400.0 mg/kg/injection, schedule: Q08DX002 (ip), vehicle: saline); 118 % of control (dose: 400.0 mg/kg/injection, schedule: Q12HX004 (ip), vehicle: saline); 88 % of control (dose: 800.0 mg/kg/injection, schedule: Q01DX010 (oral), vehicle: saline); 162 % of control (dose: 1000.0 mg/kg/injection, schedule: Q01DX001 (ip), vehicle: saline).
As for `O=C(Nc1ccc(Cl)c(Cl)c1)Nc1cc(Cl)ccc1Sc1ccc(Cl)cc1S(=O)(=O)O`, the T/C was 100 % of control (dose: 25.0 mg/kg/injection, schedule: Q01DX009 (ip), vehicle: saline with Tween-80); 100 % of control under setting [1]; 105 % of control under setting [2]; 101 % of control (dose: 100.0 mg/kg/injection, schedule: Q04DX003 (ip), vehicle: saline with Tween-80).
`O=C(O)c1ccc([N+](=O)[O-])cc1P(=O)(O)O`: the T/C (dose: 18.75 mg/kg/injection, schedule: Q01DX009 (ip), vehicle: saline) is 98 % of control; the T/C (dose: 37.5 mg/kg/injection, schedule: Q01DX009 (ip), vehicle: saline) was 98 % of control; the T/C (dose: 75.0 mg/kg/injection, schedule: Q01DX009 (ip), vehicle: saline) was 95 % of control.
For `O=C1C(Sc2ccc3ccccc3c2)=C(Sc2ccc3ccccc3c2)C(=O)c2ccccc21`, the T/C (dose: 25.0 mg/kg/injection, schedule: Q04DX003 (ip), vehicle: saline with Tween-80) is 94 % of control and the T/C (dose: 50.0 mg/kg/injection, schedule: Q04DX003 (ip), vehicle: saline with Tween-80) was 94 % of control.
Consider `C#CC(C)OCC1CNC(=S)O1` (stereo not drawn), for which the T/C is 96 % of control (dose: 25.0 mg/kg/injection, schedule: Q01DX009 (ip), vehicle: Klucel (hydroxypropylcellulose) (HPC)); 92 % of control (dose: 50.0 mg/kg/injection, schedule: Q01DX009 (ip), vehicle: Klucel (hydroxypropylcellulose) (HPC)); 94 % of control (dose: 100.0 mg/kg/injection, schedule: Q01DX009 (ip), vehicle: Klucel (hydroxypropylcellulose) (HPC)); 97 % of control (dose: 200.0 mg/kg/injection, schedule: Q01DX009 (ip), vehicle: Klucel (hydroxypropylcellulose) (HPC)); 91 % of control (dose: 400.0 mg/kg/injection, schedule: Q01DX009 (ip), vehicle: Klucel (hydroxypropylcellulose) (HPC)).
Turning to `CCCCCCCCCCCC(=O)[O][Sn]([CH2]CCC)([CH2]CCC)[O]C(=O)CCCCCCCCCCC`, the T/C runs as follows: (dose: 3.0 mg/kg/injection, schedule: Q04DX003 (ip), vehicle: saline with Tween-80) 100 % of control; (dose: 6.0 mg/kg/injection, schedule: Q04DX003 (ip), vehicle: saline with Tween-80) 103 % of control; (dose: 12.0 mg/kg/injection, schedule: Q04DX003 (ip), vehicle: saline with Tween-80) 103 % of control.
For the molecule `Cc1cc(Cc2cc(C)c(O)c(C)c2)cc(C)c1O`, the T/C was 94 % of control under setting [1]; 100 % of control under setting [2]; 97 % of control (dose: 200.0 mg/kg/injection, schedule: Q01DX009 (ip), vehicle: saline with Tween-80).
